Data reported in ChEMBL document CHEMBL1201862, “PubChem BioAssay data set” (2004).
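Method: 48-hour compound exposure of cells in 96-well plates, five concentrations, linear interpolation of endpoints. At the GI50, growth is halved.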 Activity calls are given as the source filed them. Rule as the data show it: active = GI50 up to about 1.1 µM and inactive = higher.

How the values were obtained:
Experiment in all cases: inhibition of tumour cell growth, NCI panel, 48 h
NCI/ADR-RES = tested on: NCI/ADR-RES
DU-145 = tested on: DU-145
OVCAR-5 = tested on: OVCAR-5
CCRF-CEM = tested on: CCRF-CEM
RPMI-8226 = tested on: RPMI-8226
BT-549 = tested on: BT-549
HCT-116 = tested on: HCT-116
MOLT-4 = tested on: MOLT-4
NCI-H522 = tested on: NCI-H522
K562 = tested on: K562
SF-268 = tested on: SF-268
SNB-75 = tested on: SNB-75
M14 = tested on: M14
SR = tested on: SR
Malme-3M = tested on: Malme-3M
MDA-MB-231 = tested on: MDA-MB-231
CAKI-1 = tested on: CAKI-1
SK-MEL-5 = tested on: SK-MEL-5
SF-539 = tested on: SF-539
NCI-H460 = tested on: NCI-H460
OVCAR-4 = tested on: OVCAR-4
ACHN = tested on: ACHN
U-251 = tested on: U-251
KM12 = tested on: KM12
EKVX = tested on: EKVX
NCI-H226 = tested on: NCI-H226
HT-29 = tested on: HT-29
786-0 = tested on: 786-0
OVCAR-8 = tested on: OVCAR-8
COLO 205 = tested on: COLO 205
MCF7 = tested on: MCF7
SK-MEL-2 = tested on: SK-MEL-2
HCC 2998 = tested on: HCC 2998
SN12C = tested on: SN12C
IGROV-1 = tested on: IGROV-1
SK-MEL-28 = tested on: SK-MEL-28
HCT-15 = tested on: HCT-15
LOX IMVI = tested on: LOX IMVI
A549 = tested on: A549
TK-10 = tested on: TK-10
PC-3 = tested on: PC-3
NCI-H23 = tested on: NCI-H23
HOP-62 = tested on: HOP-62
SW-620 = tested on: SW-620
SNB-19 = tested on: SNB-19
HOP-92 = tested on: HOP-92
UACC-257 = tested on: UACC-257
SF-295 = tested on: SF-295
HL-60 = tested on: HL-60
A498 = tested on: A498
UO-31 = tested on: UO-31
MDA-MB-435 = tested on: MDA-MB-435
RXF 393 = tested on: RXF 393
MDA-N = tested on: MDA-N
SK-OV-3 = tested on: SK-OV-3
T47D = tested on: T47D
UACC-62 = tested on: UACC-62
Hs-578T = tested on: Hs-578T

With Cc1cc(OC(=O)NCn2cc(-c3ccccc3)nn2)ccc1Cl the GI50 (NCI/ADR-RES) was 83.4 µM (inactive), the GI50 (DU-145) was 68.7 µM (inactive) and the GI50 (OVCAR-5) was > 100 µM (inactive). For the same molecule, the GI50 (CCRF-CEM) was 72.8 µM (inactive), the GI50 (RPMI-8226) was 78.2 µM (inactive) and the GI50 (BT-549) was 68.9 µM (inactive). The GI50 (HCT-116) was 85.7 µM (inactive), the GI50 (MOLT-4) was 28.3 µM (inactive) and the GI50 (NCI-H522) was 54.2 µM (inactive). For the same molecule, the GI50 (K562) was 76.4 µM (inactive), the GI50 (SF-268) was 48.4 µM (inactive) and the GI50 (SNB-75) was 29.8 µM (inactive). The GI50 (M14) was 67.3 µM (inactive), the GI50 (SR) was 83 µM (inactive) and the GI50 (Malme-3M) was 88.1 µM (inactive). For the same molecule, the GI50 (MDA-MB-231) was > 100 µM (inactive), the GI50 (CAKI-1) was 83.2 µM (inactive) and the GI50 (SK-MEL-5) was > 100 µM (inactive). The GI50 (SF-539) was 54.2 µM (inactive), the GI50 (NCI-H460) was 67.6 µM (inactive) and the GI50 (OVCAR-4) was 78.7 µM (inactive). For the same molecule, the GI50 (ACHN) was > 100 µM (inactive), the GI50 (U-251) was > 100 µM (inactive) and the GI50 (KM12) was > 100 µM (inactive). The GI50 (EKVX) was > 100 µM (inactive), the GI50 (NCI-H226) was > 100 µM (inactive) and the GI50 (HT-29) was 73.5 µM (inactive). For the same molecule, the GI50 (786-0) was > 100 µM (inactive), the GI50 (OVCAR-8) was 92.7 µM (inactive) and the GI50 (COLO 205) was > 100 µM (inactive). For the same molecule, the GI50 (MCF7) was > 100 µM (inactive), the GI50 (SK-MEL-2) was 48.3 µM (inactive) and the GI50 (HCC 2998) was 16.3 µM (inactive). For the same molecule, the GI50 (SN12C) was > 100 µM (inactive), the GI50 (IGROV-1) was 37.7 µM (inactive) and the GI50 (SK-MEL-28) was > 100 µM (inactive). The GI50 (HCT-15) was 97.9 µM, the GI50 (LOX IMVI) was 66.8 µM (inactive) and the GI50 (A549) was 95.5 µM (inactive). The GI50 (TK-10) was > 100 µM (inactive), the GI50 (PC-3) was > 100 µM (inactive) and the GI50 (NCI-H23) was 96.6 µM (inactive). For the same molecule, the GI50 (HOP-62) was 69.3 µM (inactive), the GI50 (SW-620) was > 100 µM (inactive) and the GI50 (SNB-19) was 91.2 µM (inactive). The GI50 (HOP-92) was 67.1 µM (inactive), the GI50 (UACC-257) was > 100 µM (inactive) and the GI50 (SF-295) was > 100 µM (inactive). The GI50 (HL-60) was 44.3 µM (inactive).
C=C[C@@]1(O)CCCC[C@@H]1CC(Sc1ccccc1)Sc1ccccc1 was tested, and the GI50 (NCI/ADR-RES) was 19.8 µM (inactive), the GI50 (DU-145) was 17.7 µM (inactive) and the GI50 (OVCAR-5) was 18.8 µM (inactive). The GI50 (CCRF-CEM) was 30.6 µM (inactive), the GI50 (A498) was 24.4 µM (inactive) and the GI50 (RPMI-8226) was 27.5 µM (inactive). For the same molecule, the GI50 (UO-31) was 17.2 µM (inactive), the GI50 (HCT-116) was 15.6 µM (inactive) and the GI50 (MOLT-4) was 31.1 µM (inactive). For the same molecule, the GI50 (MDA-MB-435) was 16.3 µM (inactive), the GI50 (NCI-H522) was 13.4 µM (inactive) and the GI50 (RXF 393) was 14.9 µM (inactive). For the same molecule, the GI50 (MDA-N) was 20.1 µM (inactive), the GI50 (K562) was 33 µM (inactive) and the GI50 (SK-OV-3) was 16.4 µM (inactive). For the same molecule, the GI50 (SF-268) was 15.5 µM (inactive), the GI50 (SNB-75) was 13.7 µM (inactive) and the GI50 (T47D) was 11.1 µM (inactive). For the same molecule, the GI50 (M14) was 19.4 µM (inactive), the GI50 (SR) was 37.1 µM (inactive) and the GI50 (Malme-3M) was 14.6 µM (inactive). The GI50 (MDA-MB-231) was 17.1 µM (inactive), the GI50 (CAKI-1) was 14.8 µM (inactive) and the GI50 (SK-MEL-5) was 17.1 µM (inactive). For the same molecule, the GI50 (NCI-H460) was 13.4 µM (inactive), the GI50 (OVCAR-4) was 16.9 µM (inactive) and the GI50 (ACHN) was 67.5 µM (inactive). For the same molecule, the GI50 (U-251) was 16.7 µM (inactive), the GI50 (UACC-62) was 8.59 µM (inactive) and the GI50 (KM12) was 16.9 µM (inactive). For the same molecule, the GI50 (EKVX) was 15.3 µM (inactive), the GI50 (NCI-H226) was 21.8 µM (inactive) and the GI50 (HT-29) was 19.4 µM (inactive). For the same molecule, the GI50 (786-0) was 22.2 µM (inactive), the GI50 (OVCAR-8) was 17.9 µM (inactive) and the GI50 (COLO 205) was 18.3 µM (inactive). For the same molecule, the GI50 (Hs-578T) was 15.5 µM (inactive), the GI50 (MCF7) was 16.7 µM (inactive) and the GI50 (SK-MEL-2) was 16 µM (inactive). The GI50 (HCC 2998) was 13 µM (inactive), the GI50 (SN12C) was 18.2 µM (inactive) and the GI50 (IGROV-1) was 14.9 µM (inactive). The GI50 (SK-MEL-28) was 25.4 µM (inactive), the GI50 (HCT-15) was 17.1 µM and the GI50 (LOX IMVI) was 19.6 µM (inactive). For the same molecule, the GI50 (A549) was 15.9 µM (inactive), the GI50 (TK-10) was 15.7 µM (inactive) and the GI50 (PC-3) was 14.3 µM (inactive). The GI50 (NCI-H23) was 17.2 µM (inactive), the GI50 (HOP-62) was 16 µM (inactive) and the GI50 (SNB-19) was 18 µM (inactive). For the same molecule, the GI50 (UACC-257) was 17.4 µM (inactive), the GI50 (SF-295) was 14.7 µM (inactive) and the GI50 (HL-60) was 49.8 µM (inactive).
